From PubChem BioAssay (NCI)
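A five-concentration, 48-hour dose response in 96-well plates underlies each endpoint, interpolated linearly between surrounding concentrations. Definition used: TGI = concentration required for complete inhibition of growth.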

How the values were obtained:
Experiment in all cases: NCI anticancer screen, dose series, 48 h
OVCAR-3 ovarian = tested on: OVCAR-3 ovarian
SF-295 CNS = tested on: SF-295 CNS
M14 melanoma = tested on: M14 melanoma
SF-539 CNS = tested on: SF-539 CNS
IGROV1 ovarian = tested on: IGROV1 ovarian
DU-145 prostate = tested on: DU-145 prostate
SN12C renal = tested on: SN12C renal
RXF 393 renal = tested on: RXF 393 renal
PC-3 prostate = tested on: PC-3 prostate
HS 578T breast = tested on: HS 578T breast
UACC-257 melanoma = tested on: UACC-257 melanoma
OVCAR-5 ovarian = tested on: OVCAR-5 ovarian
OVCAR-4 ovarian = tested on: OVCAR-4 ovarian
HT29 colon = tested on: HT29 colon
HCT-15 colon = tested on: HCT-15 colon
SK-MEL-28 melanoma = tested on: SK-MEL-28 melanoma
LOX IMVI melanoma = tested on: LOX IMVI melanoma
RPMI-8226 leukemia = tested on: RPMI-8226 leukemia
BT-549 breast = tested on: BT-549 breast
OVCAR-8 ovarian = tested on: OVCAR-8 ovarian
SNB-75 CNS = tested on: SNB-75 CNS
NCI-H226 lung = tested on: NCI-H226 lung
786-0 renal = tested on: 786-0 renal
SK-MEL-2 melanoma = tested on: SK-MEL-2 melanoma
MDA-MB-435 = tested on: MDA-MB-435
T-47D breast = tested on: T-47D breast
MDA-MB-231 breast = tested on: MDA-MB-231 breast
SW-620 colon = tested on: SW-620 colon
SNB-19 CNS = tested on: SNB-19 CNS
SK-OV-3 ovarian = tested on: SK-OV-3 ovarian
UO-31 renal = tested on: UO-31 renal
K-562 leukemia = tested on: K-562 leukemia
HL-60(TB) leukemia = tested on: HL-60(TB) leukemia
CAKI-1 renal = tested on: CAKI-1 renal
UACC-62 melanoma = tested on: UACC-62 melanoma
U251 CNS = tested on: U251 CNS
MOLT-4 leukemia = tested on: MOLT-4 leukemia
EKVX NSCLC = tested on: EKVX NSCLC
COLO 205 colon = tested on: COLO 205 colon
HCT-116 colon = tested on: HCT-116 colon
TK-10 renal = tested on: TK-10 renal
KM12 colon = tested on: KM12 colon
SR leukemia = tested on: SR leukemia
ACHN renal = tested on: ACHN renal
NCI/ADR-RES ovarian = tested on: NCI/ADR-RES ovarian
HOP-92 NSCLC = tested on: HOP-92 NSCLC
MALME-3M melanoma = tested on: MALME-3M melanoma
A549 NSCLC = tested on: A549 NSCLC
HOP-62 NSCLC = tested on: HOP-62 NSCLC
SF-268 CNS = tested on: SF-268 CNS
CCRF-CEM leukemia = tested on: CCRF-CEM leukemia
A498 renal = tested on: A498 renal
SK-MEL-5 melanoma = tested on: SK-MEL-5 melanoma
MCF7 breast = tested on: MCF7 breast
NCI-H460 lung = tested on: NCI-H460 lung

Measured: TGI

Nc1ncnc2ccc(Sc3ccc4ncnc(N)c4c3)cc12
> 100 µM: all assays above
